# Measured values taken from the supplement of paper PMC10307832.
# Columns and labels:
# Test in all cases: relative viability (nuclei count vs DMSO), 5 days (fraction); higher = more cells survive
# [1] = compound: C[As](C)SC[C@H](NC(=O)CC[C@H](N)C(=O)O)C(=O)NCC(=O)O [Darinaparsin] + O=C(CCCCCCC(=O)Nc1ccccc1)NO [Vorinostat] (partner 1 µM)
# Summary of the method: (§1)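 Each reported value is a median over duplicate plates. It expresses relative viability: treated-well nuclei count divided by vehicle-well nuclei count. Lung cancer cell lines in 1536-well plates were dosed by pin tool a day after seeding, alone with one drug or with a fixed anchor-drug dose plus five library-drug doses (not always all listed) in √10 steps, and nuclei were counted after 5 days.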
# [2] = compound: C[As](C)SC[C@H](NC(=O)CC[C@H](N)C(=O)O)C(=O)NCC(=O)O [Darinaparsin] + CS(=O)(=O)N1CCN(Cc2cc3nc(-c4cccc5[nH]ncc45)nc(N4CCOCC4)c3s2)CC1 [Pictilisib] (partner 1 µM)
# Summary of the method: as §1
# AZ628 + OSI-027 = compound: CC1=C(C=C(C=C1)NC(=O)C2=CC(=CC=C2)C(C)(C)C#N)NC3=CC4=C(C=C3)N=CN(C4=O)C [AZ628] + COc1cccc2cc(-c3nc([C@H]4CC[C@H](C(=O)O)CC4)n4ncnc(N)c34)[nH]c12 [OSI-027] (partner 0.5 µM)
# Summary of the method: as §1
# QS11 + Tozasertib = compound: C1CC2=C(C1)C=C(C=C2)OC3=NC(=C4C(=N3)N(C=N4)CC5=CC=C(C=C5)C6=CC=CC=C6)N[C@@H](CC7=CC=CC=C7)CO [QS11] + Cc1cc(Nc2cc(N3CCN(C)CC3)nc(Sc3ccc(NC(=O)C4CC4)cc3)n2)n[nH]1 [Tozasertib] (partner 0.1 µM)
# Summary of the method: as §1
Cell Line,relative viability ([1]; first compound 0.08 µM),relative viability ([1]; first compound 0.8 µM),relative viability ([1]; first compound 2.53 µM),relative viability ([1]; first compound 8 µM),relative viability ([2]; first compound 0.08 µM),relative viability ([2]; first compound 0.8 µM),relative viability ([2]; first compound 2.53 µM),relative viability ([2]; first compound 8 µM),relative viability (AZ628 + OSI-027; first compound 0.08 µM),relative viability (AZ628 + OSI-027; first compound 0.253 µM),relative viability (AZ628 + OSI-027; first compound 0.8 µM),relative viability (AZ628 + OSI-027; first compound 2.53 µM),relative viability (AZ628 + OSI-027; first compound 8 µM),relative viability (QS11 + Tozasertib; first compound 0.08 µM),relative viability (QS11 + Tozasertib; first compound 0.253 µM),relative viability (QS11 + Tozasertib; first compound 0.8 µM),relative viability (QS11 + Tozasertib; first compound 2.53 µM),relative viability (QS11 + Tozasertib; first compound 8 µM)
201T,1.03,0.905,0.917,1.14,0.757,0.622,0.623,0.767,0.838,0.707,0.689,0.761,0.849,0.956,1.03,0.694,0.892,0.584
A549,,,,,0.601,0.517,0.344,0.653,,,,,,,,,,
A-427,0.898,0.811,0.951,0.893,0.893,0.761,0.757,0.856,0.336,0.286,0.236,0.197,0.169,0.21,0.207,,0.209,0.201
ABC-1,1.59,1.09,1.05,1.26,0.793,0.648,0.738,0.904,0.644,0.402,0.53,0.491,0.297,0.191,0.157,0.174,0.168,0.183
BEN,0.572,0.602,0.688,0.65,0.709,0.636,0.498,0.659,0.318,0.278,0.32,0.281,0.267,0.441,0.529,0.504,0.485,0.486
CAL-12T,1.09,0.707,0.785,0.931,0.392,0.335,0.473,0.478,0.891,0.572,0.408,0.345,0.267,0.247,0.268,0.299,0.204,0.227
COR-L23,0.453,0.523,0.425,0.433,1.06,0.706,0.41,0.932,0.678,0.669,0.602,0.558,0.302,0.17,0.177,0.137,0.156,0.141
COR-L 105,0.908,0.656,0.822,0.932,0.446,0.411,,0.429,0.751,0.837,0.795,0.763,0.46,0.364,0.296,0.335,0.391,0.336
Calu-6,,,,,1.2,0.801,0.924,0.988,,,,,,,,,,
ChaGo-K-1,0.848,0.788,0.754,0.769,0.947,0.693,0.732,0.662,0.575,0.525,0.496,0.556,0.388,0.232,0.256,0.238,0.216,0.23
EBC-1,,,,,0.393,0.359,0.433,0.288,,,,,,,,,,
EKVX,0.787,0.653,0.764,0.737,0.508,0.404,0.452,0.488,0.715,0.673,0.804,0.764,0.572,0.369,0.367,,0.302,0.457
EMC-BAC-2,0.554,0.417,0.546,0.42,0.607,0.501,0.582,0.568,0.397,0.425,0.477,0.436,0.448,0.297,0.292,0.279,0.274,0.238
EPLC-272H,0.324,0.42,0.422,0.4,0.295,0.332,0.266,0.311,0.211,0.258,0.295,0.238,0.171,,0.17,0.258,0.248,0.292
H3255,0.746,0.788,0.745,0.895,0.474,0.429,0.421,0.514,0.64,0.484,0.564,0.584,0.323,0.639,0.853,,0.651,0.589
HARA,0.582,0.532,0.575,0.621,0.393,0.371,0.324,0.413,0.322,0.432,0.472,0.439,0.245,0.0847,0.117,,0.0916,0.102
HCC-15,0.911,0.839,0.851,0.901,0.879,0.71,0.72,0.92,0.751,0.582,0.461,0.433,0.236,0.363,0.523,0.385,0.257,0.312
HCC-44,1.24,1.12,1.05,1.09,0.852,0.574,0.44,0.677,0.453,0.441,0.493,0.374,0.365,1,0.981,0.694,0.792,0.458
HCC-78,0.487,0.422,0.465,0.43,0.191,0.228,0.246,0.267,0.427,0.37,0.391,0.341,0.399,0.404,0.57,0.401,0.462,0.449
HCC-366,0.454,,0.339,0.436,0.108,0.13,0.158,0.162,0.895,0.63,0.662,0.62,0.209,0.133,0.0935,,0.0603,0.0521
HCC-827,0.874,0.818,0.775,0.963,1.06,0.907,0.901,1.01,0.741,0.82,0.796,0.703,0.418,0.389,0.416,0.315,0.433,0.457
HOP-62,0.765,0.654,0.522,0.819,0.99,0.588,0.774,1.04,0.828,0.857,0.831,0.857,0.43,0.363,0.442,0.31,0.281,0.302

Cell Line,relative viability ([1]; first compound 0.08 µM),relative viability ([1]; first compound 0.8 µM),relative viability ([1]; first compound 2.53 µM),relative viability ([1]; first compound 8 µM),relative viability ([2]; first compound 0.08 µM),relative viability ([2]; first compound 0.8 µM),relative viability ([2]; first compound 2.53 µM),relative viability ([2]; first compound 8 µM),relative viability (AZ628 + OSI-027; first compound 0.08 µM),relative viability (AZ628 + OSI-027; first compound 0.253 µM),relative viability (AZ628 + OSI-027; first compound 0.8 µM),relative viability (AZ628 + OSI-027; first compound 2.53 µM),relative viability (AZ628 + OSI-027; first compound 8 µM),relative viability (QS11 + Tozasertib; first compound 0.08 µM),relative viability (QS11 + Tozasertib; first compound 0.253 µM),relative viability (QS11 + Tozasertib; first compound 0.8 µM),relative viability (QS11 + Tozasertib; first compound 2.53 µM),relative viability (QS11 + Tozasertib; first compound 8 µM)
IA-LM,0.947,1.07,1.2,0.89,0.414,0.408,0.949,0.313,,,,,,,,,,
LC-2-ad,0.805,0.762,0.657,0.829,0.564,0.456,0.32,0.533,0.817,0.87,0.779,0.821,0.703,0.445,0.471,0.476,0.507,0.439
LCLC-103H,0.796,0.713,0.732,0.885,0.52,0.566,0.593,0.604,0.418,0.438,0.531,0.403,0.423,0.389,0.496,0.358,0.477,0.43
LK-2,0.283,0.268,0.256,0.263,0.634,,0.547,0.564,0.191,0.234,0.234,0.187,0.198,0.177,0.194,0.181,0.173,0.19
LOU-NH91,0.937,0.885,0.86,0.969,0.535,0.492,0.553,0.56,0.72,0.712,0.651,0.664,0.569,0.67,0.647,0.629,0.597,0.572
LU99A,0.477,0.47,0.524,0.455,0.336,0.313,0.294,0.322,0.271,0.313,0.268,0.288,0.239,0.269,0.285,0.273,0.296,0.245
LXF-289,0.775,0.788,0.828,0.779,0.806,0.749,0.597,0.981,0.812,0.763,0.736,0.74,0.434,0.159,0.197,0.147,0.213,0.253
NCI-H23,0.62,0.485,0.663,0.716,0.431,0.494,0.444,0.603,0.568,0.528,0.464,0.474,0.309,0.277,0.413,0.273,0.253,0.266
NCI-H322M,1.08,0.865,0.768,0.899,0.58,0.495,0.469,0.59,0.503,0.534,0.541,0.532,0.482,0.479,0.479,0.45,0.545,0.64
NCI-H358,0.744,0.636,0.594,0.745,0.315,0.319,0.343,0.319,0.647,0.602,0.403,0.354,0.286,0.099,0.106,0.108,0.101,0.109
NCI-H441,1.15,0.751,0.847,0.884,0.566,0.498,0.424,0.548,0.801,0.558,0.634,0.588,0.492,0.642,0.572,0.582,0.481,0.581
NCI-H460,1.35,0.831,0.569,1,0.479,0.415,0.373,0.406,0.738,0.64,0.259,0.429,0.107,0.3,0.446,,0.0921,0.143
NCI-H522,0.85,0.909,0.798,0.905,,,,,0.799,0.668,0.658,0.644,0.641,0.494,0.616,0.47,0.627,1.58
NCI-H1299,,,,,1.03,0.882,0.751,0.808,,,,,,,,,,
NCI-H1563,,,,,0.693,0.63,0.594,0.602,0.787,0.726,0.718,0.788,0.792,,,,,
NCI-H1623,,,,,,,,,0.452,0.388,0.245,0.36,0.225,0.449,0.546,0.427,0.466,0.434
NCI-H1648,,0.301,,0.56,,,,,0.254,0.276,0.253,0.255,0.244,,0.577,,0.396,0.642
NCI-H1703,,,,,0.236,0.271,0.261,0.268,,,,,,,,,,
NCI-H1792,,,,,0.169,0.235,0.243,0.356,0.735,0.516,0.474,0.428,0.233,,,,,
NCI-H2342,0.876,0.721,0.734,0.828,,,,,0.717,0.589,0.569,0.64,0.669,0.479,0.46,0.62,0.474,0.436
SW 900,0.457,,0.635,0.596,,,,,0.61,0.566,0.501,0.345,0.474,0.573,0.479,0.521,0.408,0.296
